For test [1], the target named is EGFR (human) (UniProt P00533). The settings on record: mda-mb-435.
The target of test [2] is EGFR (human) (UniProt P00533). The settings on record: sw 620.
Test [3] addresses EGFR (human) (UniProt P00533). The settings on record: a431.
Test [4] has as its target EGFR (human) (UniProt P00533). The settings on record: sk-br-3.
Test [5] addresses EGFR (human) (UniProt P00533). The settings on record: 3t3.
In test [6] the target is EGFR (human) (UniProt P00533). To be noted: her2/3t3.

Structures are written as SMILES. ≈ marks a conversion by molar mass, not a printed value.

For orientation: IC50 means the concentration that gives 50% inhibition. A higher IC50 goes with a need for much substance.

Sequence of EGFR (human) (P00533 whole entry, looked up): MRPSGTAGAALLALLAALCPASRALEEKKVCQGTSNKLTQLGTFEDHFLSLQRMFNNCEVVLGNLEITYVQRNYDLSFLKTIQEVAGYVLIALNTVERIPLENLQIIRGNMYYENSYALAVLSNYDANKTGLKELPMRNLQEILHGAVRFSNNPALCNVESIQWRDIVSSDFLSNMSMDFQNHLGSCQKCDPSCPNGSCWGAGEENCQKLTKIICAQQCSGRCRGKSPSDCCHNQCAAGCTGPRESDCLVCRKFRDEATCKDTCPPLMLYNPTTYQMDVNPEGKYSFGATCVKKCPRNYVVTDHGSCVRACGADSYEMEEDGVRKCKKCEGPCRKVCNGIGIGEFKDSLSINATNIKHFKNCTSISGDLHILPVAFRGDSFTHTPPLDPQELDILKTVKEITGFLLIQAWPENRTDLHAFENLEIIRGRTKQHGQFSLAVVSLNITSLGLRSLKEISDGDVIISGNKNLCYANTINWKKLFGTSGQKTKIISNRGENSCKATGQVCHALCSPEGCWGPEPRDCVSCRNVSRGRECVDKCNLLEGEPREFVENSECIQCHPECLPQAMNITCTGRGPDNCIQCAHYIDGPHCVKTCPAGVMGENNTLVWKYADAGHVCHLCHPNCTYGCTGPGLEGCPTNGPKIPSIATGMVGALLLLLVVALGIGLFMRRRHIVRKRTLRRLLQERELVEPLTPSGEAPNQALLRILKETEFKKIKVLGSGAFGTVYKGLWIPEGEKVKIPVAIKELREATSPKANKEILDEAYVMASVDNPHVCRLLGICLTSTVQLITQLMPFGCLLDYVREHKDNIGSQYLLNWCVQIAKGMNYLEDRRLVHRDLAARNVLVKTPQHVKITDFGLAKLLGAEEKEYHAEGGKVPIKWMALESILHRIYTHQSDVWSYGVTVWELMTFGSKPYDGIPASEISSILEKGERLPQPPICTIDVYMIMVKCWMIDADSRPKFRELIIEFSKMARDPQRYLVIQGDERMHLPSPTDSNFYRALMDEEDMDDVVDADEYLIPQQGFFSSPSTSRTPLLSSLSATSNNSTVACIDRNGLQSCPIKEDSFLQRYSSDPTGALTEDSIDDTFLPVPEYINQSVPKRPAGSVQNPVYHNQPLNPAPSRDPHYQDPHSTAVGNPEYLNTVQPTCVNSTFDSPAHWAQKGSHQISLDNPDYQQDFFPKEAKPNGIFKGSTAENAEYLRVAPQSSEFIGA

With `COCCN(C)CC#CC(=O)Nc1ccc2ncc(C#N)c(Nc3cccc(Br)c3)c2c1`, the IC50 on EGFR (human) [1] is 0.284 µg/mL (≈ 0.577 µM); against EGFR (human) [2], 0.239 µg/mL (≈ 0.485 µM); at EGFR (human) [3] it was 0.05 µg/mL (≈ 0.102 µM).

As for `COc1cc2ncc(C#N)c(Nc3ccc(F)c(Cl)c3)c2cc1NC(=O)/C=C/CN1CCC2(CC1)OCCO2`, the IC50 was 3.32 µg/mL (≈ 6.01 µM) against EGFR (human) [1]; 2.51 µg/mL (≈ 4.55 µM) against EGFR (human) [2]; 0.283 µg/mL (≈ 0.513 µM) against EGFR (human) [3]; 0.188 µg/mL (≈ 0.341 µM) at EGFR (human) [4]; 2.79 µg/mL (≈ 5.05 µM) against EGFR (human) [5]; 0.35 µg/mL (≈ 0.634 µM) on EGFR (human) [6].

As to `COCCN(C)C/C=C\C(=O)Nc1cc2c(Nc3ccc(F)c(Cl)c3)c(C#N)cnc2cc1OC`, the IC50 at EGFR (human) [1] is 2.07 µg/mL (≈ 4.16 µM); against EGFR (human) [2] it was 1.53 µg/mL (≈ 3.07 µM); on EGFR (human) [3] it was 0.245 µg/mL (≈ 0.492 µM); against EGFR (human) [4], 0.107 µg/mL (≈ 0.215 µM); on EGFR (human) [5], 2.04 µg/mL (≈ 4.1 µM); on EGFR (human) [6] it was 0.192 µg/mL (≈ 0.386 µM).

For `COC[C@@H]1CCCN1CC#CC(=O)Nc1ccc2ncc(C#N)c(Nc3cccc(Br)c3)c2c1`, the values for the IC50 on EGFR (human) [1] and against EGFR (human) [2] were 0.3 µg/mL (≈ 0.579 µM) and 0.1 µg/mL (≈ 0.193 µM), respectively.

With `CN1CCC=C(C(=O)Nc2ccc3ncc(C#N)c(Nc4cccc(Br)c4)c3c2)C1`, the IC50 was 3.19 µg/mL (≈ 6.91 µM) against EGFR (human) [1], more than 5 µg/mL on EGFR (human) [2], 0.369 µg/mL (≈ 0.798 µM) against EGFR (human) [3] and 1.5 µg/mL (≈ 3.23 µM) against EGFR (human) [4].

`COCCOCC#CC(=O)Nc1ccc2ncc(C#N)c(Nc3cccc(Br)c3)c2c1`: the IC50 on EGFR (human) [1] was 3.5 µg/mL (≈ 7.3 µM); on EGFR (human) [2] it was 0.4 µg/mL (≈ 0.834 µM); against EGFR (human) [3] it was 0.9 µg/mL (≈ 1.88 µM); against EGFR (human) [4], 0.8 µg/mL (≈ 1.67 µM).

For the compound `COCCN(CC#CC(=O)Nc1ccc2ncc(C#N)c(Nc3cccc(Br)c3)c2c1)CCOC`, the results for the IC50 at EGFR (human) [1], at EGFR (human) [2] and against EGFR (human) [3] were 0.2 µg/mL (≈ 0.373 µM), 0.5 µg/mL (≈ 0.932 µM) and 0.1 µg/mL (≈ 0.186 µM), respectively.

Consider `COC[C@@H]1CCCN1C/C=C/C(=O)Nc1cc2c(Nc3ccc(F)c(Cl)c3)c(C#N)cnc2cc1OC`, for which the IC50 against EGFR (human) [1] was 1.74 µg/mL (≈ 3.32 µM); at EGFR (human) [2], 1.24 µg/mL (≈ 2.37 µM); against EGFR (human) [3], 0.234 µg/mL (≈ 0.447 µM); at EGFR (human) [4] it was 0.148 µg/mL (≈ 0.282 µM); against EGFR (human) [5], 2.1 µg/mL (≈ 4.01 µM); against EGFR (human) [6], 0.329 µg/mL (≈ 0.628 µM).

On to `C=CCN(C)CC#CC(=O)Nc1ccc2ncc(C#N)c(Nc3cccc(Br)c3)c2c1`, for which the IC50 against EGFR (human) [1] and against EGFR (human) [2] was 0.1 µg/mL (≈ 0.211 µM) in each case.

As to `CCOc1c(Nc2ccc3ncc(C#N)c(Nc4cccc(Br)c4)c3c2)c(=O)c1=O`, the IC50 on EGFR (human) [1] amounted to 27.6 µg/mL (≈ 59.6 µM); against EGFR (human) [2], 18 µg/mL (≈ 38.8 µM); on EGFR (human) [3], 4.91 µg/mL (≈ 10.6 µM); at EGFR (human) [4], 1.74 µg/mL (≈ 3.76 µM).

`COc1cc2ncc(C#N)c(Nc3ccc(F)c(Cl)c3)c2cc1NC(=O)/C=C\CN1CCCC(CO)C1` (stereo not given): the IC50 against EGFR (human) [1] is 1.83 µg/mL (≈ 3.49 µM); on EGFR (human) [2], 1.73 µg/mL (≈ 3.3 µM); against EGFR (human) [3] it was 0.232 µg/mL (≈ 0.443 µM); against EGFR (human) [5], 2.87 µg/mL (≈ 5.48 µM); against EGFR (human) [6], 0.375 µg/mL (≈ 0.716 µM).

Source of the values: the Kinase Knowledgebase extract (Sharma et al. 2016).
